How the values were obtained:
cats with CKD [1] = test: Retrospective observation study: survival period / overall survival rate (all-cause death), BPS therapy vs No BPS therapy; assay type: in vivo, cat; details: for average survival period / median survival period: Kaplan-Meier
Method: Based on the drug prescription records, cats were divided into two groups: a BPS therapy group consisting of 17 cats; and a BPS therapy-free group consisting of 67 cats, and baseline characteristics and the survival periods were compared and analyzed retrospectively. To the cats in the BPS therapy group, BPS drugs for veterinary use, RAPROS (trademark) (Toray Industries, Inc.), were administered while adjusting the amount of BPS to 20.0 to 49.1 μg/kg body weight/day and the median to 31.4 μg/kg body weight/day twice daily during or after morning and evening feeding occasions. By designating all-cause death as the outcome, the start date of treatment as the point of origin for the cats in the BPS therapy group, and the start date of observation as the point of origin for the cats in the No BPS therapy group based on the death records, the periods (months) before the outcome was observed were recorded. In analysis, the 2-year overall survival rates (%) of the BPS therapy group and of the No BPS therapy group, the standard errors thereof, the 95% confidence intervals, and the comparison of the 2-year overall survival rates (%) between the groups were calculated. […] Differences in the overall survival rates were assessed by the log rank test, the Cochran-Mantel-Haenszel test, by setting significant level at a two-tailed P-value of <0.05. […]
From among the cats with CKD, the data sets of […] having body weight of less than 3.5 kg were extracted, and the cats were divided into two groups: a BPS therapy group consisting of 19 cats; and a BPS therapy-free group consisting of 40 cats. In the same manner as described above, the 3-year overall survival rates (%) and the average survival periods were compared between the groups.

cats with CKD [2] = details: 20 to 55 μg twice daily, 2 months to 3 years and 3 months; cited from earlier work
cats with CKD [3] = test: Retrospective observation study: period before progression into IRIS stage 4, BPS therapy vs No BPS therapy (Kaplan-Meier); assay type: in vivo, cat; details: for 3-year stage progression-free rate: cats with CKD, twice daily
Method: To compare the periods before progression of feline CKD into stage 4 with BPS therapy and without BPS therapy, the following retrospective observation studies were performed. The studies were performed at Ichikawa General Hospital, Kariya Animal Hospital, Inc., that had adopted the electronic chart system for veterinary hospitals, Ahmics (trademark) (PetCommunications Co., Ltd.), and completely eliminated the use of paper charts before 2017. In this hospital, all-encompassing information concerning medical treatment such as test data, death records, and drug prescription records of all patient animals have been managed by the electronic chart system. Specifically, the data sets of 1,681 cats subjected to the serum creatinine test and the data sets of 1,399 cats subjected to the urinalysis from Apr. 1, 2017 to Dec. 10, 2020 were extracted. Among them, by excluding 951 cats without records, the data sets of 730 cats that were diagnosed to have CKD as a result of serum creatinine tests at least two times, urinalysis, and other clinical tests were extracted.
Based on the drug prescription records, cats were divided into two groups: a BPS therapy group consisting of 57 cats; and a BPS therapy-free group consisting of 77 cats, and the baseline characteristics and the periods before progression into stage 4 were compared and analyzed retrospectively. To the cats in the BPS therapy group, BPS drugs for veterinary use, RAPROS (trademark) (Toray Industries, Inc.), were administered while adjusting the amount of BPS to 14.1 to 52.4 μg/kg body weight/day and the median to 29.1 μg/kg body weight/day twice daily during or after morning and evening feeding occasions. […] Progression into stage 4 was examined by the method defined by the IRIS staging. Specifically, progression into stage 4 was determined based on serum creatinine or serum SDMA measured to be higher than 5.0 mg/dL or higher than 38 μg/dL, respectively, via two or more hospital visits. By designating progression into stage 4 as the outcome, the start date of treatment as the point of origin for the cats in the BPS therapy group, and the start date of observation as the point of origin for the cats in the No BPS therapy group, the periods (months) before the outcome was observed were recorded. In analysis, the 3-year stage progression-free rates (%) of the BPS therapy group and of the No BPS therapy group, the standard errors thereof, the 95% confidence intervals, and the comparison of the 3-year stage progression-free rates (%) between the groups were calculated. […] The average period (months) before progression into stage 4, the standard error thereof, the 95% confidence intervals, the medians and the standard errors thereof, the 95% confidence intervals, and the comparison of the average stage progression-free periods were calculated. Differences in the stage progression-free rates were assessed by the log rank test, the Cochran-Mantel-Haenszel test, by setting significant level at a two-tailed P-value of <0.05.
Based on the drug prescription records, cats were divided into two groups: a BPS therapy group consisting of 37 cats; and a BPS therapy-free group consisting of 332 cats, and the baseline characteristics and the periods before progression into stage 4 were compared and analyzed retrospectively. To the cats in the BPS therapy group, BPS drugs for veterinary use, RAPROS (trademark) (Toray Industries, Inc.), were administered while adjusting the amount of BPS to 18.5 to 42.3 μg/kg body weight/day and the median to 26.5 μg/kg body weight/day twice daily during or after morning and evening feeding occasions. Progression into stage 4 was examined by the method defined by the IRIS staging. Specifically, progression into stage 4 was determined based on serum creatinine or serum SDMA measured to be higher than 5.0 mg/dL or higher than 38 μg/dL, respectively, via two or more hospital visits. […]

[4] = tested on: cats with naturally occurring CKD; details: cited from earlier work
[5] = cats with CKD having body weight of less than 3.5 kg
[6] = stage 3 and body weight of less than 4.2 kg
[7] = stage 2 (serum creatinine 1.6 to 2.8 mg/dL)
[8] = stage 3 (serum creatinine 2.9 to 5.0 mg/dL)
[9] = stage 3 (serum creatinine 2.9 to 5.0 mg/dL), Kaplan-Meier
[10] = 55 μg or 6 to 26.4 μg/kg, preferably twice daily for 30 days or longer (WO '949)

SMILES: CC#CCC(C)[C@H](O)/C=C/[C@@H]1[C@H]2c3cccc(CCCC(=O)[O-])c3O[C@H]2C[C@H]1O.[Na+] (some centres unmarked) [BPS, Beraprost sodium]
- 3-year overall survival rate of BPS therapy group relative to No BPS therapy group (cats with CKD [1]; [5]): 2.90 times
- average survival period of BPS therapy group relative to No BPS therapy group (cats with CKD [1]; [5]): 1.66 times
- 3-year overall survival rate (cats with CKD [1]; cats with CKD, serum creatinine 1.6 to 2.8 mg/dL (stage 2)): 52.2%
- 3-year overall survival rate (cats with CKD [1]; cats with CKD, serum creatinine 2.9 to 5.0 mg/dL (stage 3)): 33.5%
- 2-year overall survival rate (cats with CKD [1]; cats with CKD, serum creatinine higher than 5.0 mg/dL (stage 4), BPS 20.0 to 49.1 μg/kg body weight/day, twice daily): 25.9%
- 3-year overall survival rate of BPS therapy group relative to No BPS therapy group (cats with CKD [1]; stage 2): 0.72 times
- average survival period of BPS therapy group relative to No BPS therapy group (cats with CKD [1]; stage 2): 0.90 times
- average survival period (cats with CKD [1]; stage 2): 31.5 months
- effect on overall survival rate or observed survival rate (cats with CKD [1]; stage 2 before initiation of administration): no effects of BPS administration to improve the overall survival rate or the observed survival rate were observed
- average survival period of BPS therapy group relative to No BPS therapy group (cats with CKD [1]; stage 3): 1.54 times
- 3-year overall survival rate of BPS therapy group relative to No BPS therapy group (cats with CKD [1]; stage 3 (Example 4)): 1.85 times
- 3-year overall survival rate (cats with CKD [1]; stage 3 (serum creatinine 2.9 to 5.0 mg/dL) and body weight of less than 4.2 kg): 28.0%
- average survival period (cats with CKD [1]; stage 3): 25.3 months
- median survival period (cats with CKD [1]; stage 3): 23.4 months
- average survival period of BPS therapy group relative to No BPS therapy group (cats with CKD [1]; [6]): 1.54 times
- 3-year overall survival rate of BPS therapy group relative to No BPS therapy group (cats with CKD [1]; stage 3 and body weight of less than 4.2 kg (Example 6)): 2.77 times
- effect on overall survival rate or observed survival rate (cats with CKD [1]; stage 3 and body weight of less than 4.2 kg before initiation of administration): effects of BPS administration to improve the overall survival rate or the observed survival rate were observed
- average survival period (cats with CKD [1]; [6]): 22.4 months
- median survival period (cats with CKD [1]; [6]): 19.8 months
- effect on overall survival rate or observed survival rate (cats with CKD [1]; stage 3 before initiation of administration): effects of BPS administration to improve the overall survival rate or the observed survival rate were observed
- 2-year overall survival rate of BPS therapy group relative to No BPS therapy group (cats with CKD [1]; stage 4): 4.80 times
- average survival period of BPS therapy group relative to No BPS therapy group (cats with CKD [1]; stage 4): 2.43 times
- average survival period (cats with CKD [1]; stage 4): 14.1 months
- median survival period (cats with CKD [1]; stage 4): 10.2 months
- effect on overall survival rate or observed survival rate (cats with CKD [1]; stage 4 before initiation of administration): effects of BPS administration to improve the overall survival rate or the observed survival rate were observed
- clinical symptoms and kidney function (cats with CKD [2]): stabilized clinical symptoms and maintained kidney function
- 3-year stage progression-free rate (cats with CKD [3]; serum creatinine 1.6 to 2.8 mg/dL (stage 2), BPS 18.5 to 42.3 μg/kg body weight/day): 74.7%
- 3-year stage progression-free rate (cats with CKD [3]; serum creatinine 2.9 to 5.0 mg/dL (stage 3), BPS 14.1 to 52.4 μg/kg body weight/day): 32.7%
- 3-year stage progression-free rate of BPS therapy group relative to No BPS therapy group (cats with CKD [3]; [7]): 0.83 times
- average stage progression-free period of BPS therapy group relative to No BPS therapy group (cats with CKD [3]; [7]): 0.93 times
- effect on progression into stage 4 (cats with CKD [3]; stage 2 (serum creatinine 1.6 to 2.8 mg/dL) before initiation of administration): no effects of BPS administration to inhibit progression into stage 4 were observed
- average period before progression into stage 4 (cats with CKD [3]; stage 2 (serum creatinine 1.6 to 2.8 mg/dL), Kaplan-Meier): 38.0 months
- 3-year stage progression-free rate of BPS therapy group relative to No BPS therapy group (cats with CKD [3]; [8]): 1.25 times
- average stage progression-free period of BPS therapy group relative to No BPS therapy group (cats with CKD [3]; [8]): 1.49 times
- effect on progression into stage 4 (cats with CKD [3]; stage 3 (serum creatinine 2.9 to 5.0 mg/dL) before initiation of administration): effects of BPS administration to inhibit progression into stage 4 were observed
- average period before progression into stage 4 (cats with CKD [3]; [9]): 26.5 months
- median period before progression into stage 4 (cats with CKD [3]; [9]): 31.6 months
- adverse side effects [4, 10]: without adverse side effects
- kidney function marker values [4, 10]: inhibit elevation in kidney function marker values such as serum creatinine and BUN
- tolerability and safety ([4]; 55 μg twice daily for 6 months): well-tolerated and safe
- serum creatinine ([4]; 55 μg twice daily for 6 months, vs placebo): inhibited serum creatinine elevation observed in the placebo group

From patent US12097177B2, “Therapeutic method for cat with chronic kidney disease” (Toray Industries, Inc., priority 2021, dated 2024)
